Results: patent US9193755B1, “TFEB variants and uses thereof” (Fondazione Telethon, priority 2011, dated 2015)

Legend:
long-lived proteins = experiment: Degradation of long-lived proteins; format: cell-based; conditions: autophagy inhibitor added
Protocol: Sub-confluent cells were incubated with L-U^14C-serine for 20 h and chased for 1 h with cold media to degrade short-lived proteins. Subsequently cells were incubated with either normal media or starvation media (eventually in the presence of 3-MA) for 4 h. The rate of long-lived protein degradation was calculated from the ratio of soluble radioactivity in the media to that insoluble in the acid-precipitable cell pellet.

TFEB = TFEB nuclear translocation in starved / re-stimulated HeLa cells (nuclear/cytosolic fractionation, immunofluorescence); format: cell-based, human; conditions: for nuclear translocation of exogenously expressed TFEB: HeLa and HEK-293T cells transfected with TFEB-3xFLAG, treated overnight; for TFEB nuclear translocation compared to starved media alone: EBSS media supplemented with the factor
Protocol: Cells were seeded at 50% of confluence in 6 well dishes and serum starved overnight (ON). Normal medium was added the following day either in presence of DMSO or kinase inhibitors. Subcellular fractionation was carried out as previously reported.

mTORC1 = mTORC1 activity by level of p-P70S6K (immunoblotting); format: cell-based, human; conditions: HeLa cells treated overnight
TFEB S142 = TFEB S142 phosphorylation with p-S142 phosphospecific antibody; format: cell-based, human; conditions: starved cells supplemented with normal media
Description: The mouse anti-TFEB monoclonal antibody was purchased from My Biosource catalogue No. MBS120432. To generate anti-pS142 specific antibodies, rabbits were immunized with the following peptide coupled to KLH: AGNSAPN{pSer}[…]. Following the fourth immunization, rabbits were sacrificed and the serum was collected. Non-phosphospecific antibodies were depleted from the serum by circulation through a column containing the non-phosphorylated antigene. The phosphospecific antibodies were subsequently purified using a column containing the phosphorylated peptide.
Cells were lysed with M-PER buffer (Thermo) containing protease and phosphatase inhibitors (Sigma); nuclear/cytosolic fractions were isolated as above described. Proteins were separated by SDS-PAGE (Invitrogen; reduced NuPAGE 4-12% Bis-tris Gel, MES SDS buffer). If needed, the gel was stained using 20 ml Imperial Protein Stain (Thermo Fisher) at room temperature for 1 h and de-stained with water. Immunoblotting analysis was performed by transferring the protein onto a nitrocellulose membrane with an I-Blot (Invitrogen). […]

primary hepatocytes = conditions: for upregulation / transcriptional response of TFEB target genes: hepatocytes from TFEB conditional knockout mice; for levels of P-ERK / mTOR as measured by the level of p-S6K: primary hepatocytes
Protocol: Liver was dissociated in a petri dish, cell pellet was washed in HBSS and plated at density of 5×10^5 cells/35 mm dish and cultured in William's medium E supplemented with 10% FBS, 2 mM glutamine, 0.1 mM Insulin, 0.1 mM Dexamethasone and pen/strep. The next day, cells were treated as described in the text.
Total RNA was extracted from tissues using TRIzol (Invitrogen) or from cells using RNAesy column (Qiagen). Reverse transcription was performed using TaqMan reverse transcription reagents (Applied Biosystems). Lysosomal and autophagic gene specific primers were previously reported^2. Autophagy gene primers and mouse primers were purchased from SABiosciences. Fold change calculations were calculated using SABiosciences' online data analysis website (http colon double forward slash www dot sabiosciences dot com forward slash per forward slash arrayanalysis dot php) which uses the DDCt method. […] Next, the DDCt value is calculated between the “control” group and the “experimental” group. Lastly, the fold change is calculated using 2^(−DDCt). Biological replicates were grouped to allow calculating the fold change values. Unpaired T-Test was used to calculate statistical significance. Asterisks in the graph indicate that the P-value was <0.05.

mTOR = mTOR (Homo sapiens, UniProt P42345); conditions: recent data (41, 47, 48); cited from earlier work
[1] = Dissolution of test peptides for in vitro kinase assay; format: physicochemical; conditions: 1 mM in 50 mM HEPES pH7
Protocol: TFEB-S-142: aa. o 117-166 of Seq Id No. 2: […] and TFEB-A-142: Seq Id No. 4, corresponding to aa. of 117-166 of Seq Id No. 2 where Ser 142 was substituted with Ala (bold): […] were synthesized by […] corp. The test peptides TFEB-A-142 and TFEB-S-142 were made up to 1 mM in 50 mM HEPES pH7. […] The kinase assay was performed at room temperature for 40 minutes at 200 μM ATP and 100 μM of each peptide, using Millipore's standard radiometric assay. All protein kinases were used at their standard KinaseProfiler™ assay concentration. Following incubation, all assays were stopped by the addition of acid and an aliquot spotted onto P30 and Filtermat A to separate products. All tests were carried out in triplicate, and the usual substrate for each protein kinase included as a control. In Vivo Gene Delivery

Cn1cnc(N)c2ncnc1-2 [3-methyl adenine, reference compound]
TFEB-induced enhancement of long-lived protein degradation (long-lived proteins): abolished

CC/C=C\C=C/C(=O)N/C=C/C[C@H]1C[C@@H](O)[C@@H](C)C/C=C/Cc2cccc(O)c2C(=O)O1 [Salicylihalamide A]
nuclear translocation of exogenously expressed TFEB (TFEB): induced nuclear translocation | mTORC1 activity as measured by level of p-P70S6K (mTORC1): inhibited

CCC(=O)N1CCN(c2ccc(-n3c(=O)ccc4cnc5ccc(-c6cnc7ccccc7c6)cc5c43)cc2C(F)(F)F)CC1 [Torin 1]
TFEB subcellular localization (TFEB; starved cells stimulated with amino-acid rich medium, Torin 1 250 nM, Rapamycin 2.5 μM): massive TFEB nuclear accumulation | nutrient-induced S142 phosphorylation (TFEB S142): clearly blunted | upregulation / transcriptional response of TFEB target genes (primary hepatocytes): significantly reduced | levels of P-ERK (primary hepatocytes): unaffected | mTOR as measured by the level of p-S6K (primary hepatocytes): inhibited mTOR

Nc1ccc(-c2ccc3ncc4ccc(=O)n(-c5cccc(C(F)(F)F)c5)c4c3c2)cn1 [Torin 2]
mTOR inhibition (mTOR): completely inhibiting mTOR activity

N#CC(=C(/N)Sc1ccccc1N)/C(C#N)=C(\N)Sc1ccccc1N [U0126]
TFEB molecular weight shift induced by nutrients (TFEB): only a partial TFEB molecular weight shift | TFEB nuclear localization (TFEB): resulted in TFEB nuclear localization, at level similar to starvation

CCN(CC)CCCC(C)Nc1ccnc2cc(Cl)ccc12 (stereo not drawn) [chloroquine]
nuclear translocation of exogenously expressed TFEB (TFEB): induced nuclear translocation | upregulation / transcriptional response of TFEB target genes (primary hepatocytes): significantly blunted | expression of TFEB target genes (primary hepatocytes; hepatocytes from control mice): upregulated | levels of P-ERK (primary hepatocytes): unaffected | mTOR as measured by the level of p-S6K (primary hepatocytes): inhibited mTOR

EGF: growth factor supplemented to EBSS media (NSDSECPLSHDGYCLHDGVCMYIEALDKYACNCVVGYIGERCQYRDLKWWELR; UniProt P01133 971-1023, looked up)
TFEB nuclear translocation compared to starved media alone (TFEB): significant inhibition

LIF: cytokine supplemented to EBSS media
TFEB nuclear translocation compared to starved media alone (TFEB): Almost no effect

PPPAASPGVRAGHVLSSSAGNSAPNAPMAMLHIGSNPERELDDVIDNIMR [TFEB-A-142]
dissolution [1]: no issue with dissolution

PPPAASPGVRAGHVLSSSAGNSAPNSPMAMLHIGSNPERELDDVIDNIMR (listed as Homo sapiens) [TFEB-S-142, peptide aa]
dissolution [1]: no issue with dissolution

insulin: growth factor supplemented to EBSS media
TFEB nuclear translocation compared to starved media alone (TFEB): significant inhibition
